22 compounds from patent publication US12060347B2 (BRISTOL-MYERS SQUIBB COMPANY, priority 2016, dated 2024) can be followed below.

The assay deals with T1, human PAR4 (Homo sapiens, UniProt Q96RI0).
T1 construct: expressed in transfected cells; host or cells: HEK293 PAR4 Clone 1.2A (BMS Arctic ID 383940)
T1 sequence (Q96RI0 18-385): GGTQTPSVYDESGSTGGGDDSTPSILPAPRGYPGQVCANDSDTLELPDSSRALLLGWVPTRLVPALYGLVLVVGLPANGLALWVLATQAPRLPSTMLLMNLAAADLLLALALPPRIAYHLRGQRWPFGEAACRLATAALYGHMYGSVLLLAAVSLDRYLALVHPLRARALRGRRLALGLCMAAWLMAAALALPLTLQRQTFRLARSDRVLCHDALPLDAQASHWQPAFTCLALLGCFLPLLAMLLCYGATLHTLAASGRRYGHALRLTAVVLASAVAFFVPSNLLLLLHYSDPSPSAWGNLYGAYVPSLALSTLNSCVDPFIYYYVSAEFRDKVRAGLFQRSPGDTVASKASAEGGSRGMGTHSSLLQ
The experiment in a line: PAR4 FLIPR assay: antagonism of agonist-peptide-induced calcium mobilization in PAR4-expressing HEK293 cells. The format is cell-based. The settings on record: H-Ala-Phe(4-F)-[…]NH2-induced intracellular calcium mobilization, 11-point curves.

One may read the IC50 as the midpoint of a concentration-inhibition curve. Consider `COc1cnc2c(-c3nc4cc(F)c(OCC(COCC(C)C)OC(=O)Nc5cnc(C)nc5)cc4s3)cc(C)cc2n1` (racemic) [Example 525, 1-((5-fluoro-2-(2-methoxy-7-methylquinoxalin-5-yl)benzo[d]thiazol-6-yl)oxy)-3-isobutoxypropan-2-yl (2-methylpyrimidin-5-yl)carbamate (rac)], for which the IC50 was 2.3 nM. `COc1cnc2c(-c3nc4cc(F)c(O[C@@H](C)[C@@H](C)OC(=O)Nc5ccnc(C(=O)N(C)C)c5)cc4s3)cc(C)cc2n1` [Example 467, (2R,3S)-3-((5-fluoro-2-(2-methoxy-7-methylquinoxalin-5-yl)benzo[d]thiazol-6-yl)oxy)butan-2-yl (2-(dimethylcarbamoyl)pyridin-4-yl)carbamate]: the IC50 was found to be 1.9 nM. Then `COc1cnc2c(-c3nc4c(C(O)C(C)(C)C)cc(OCCOC(=O)Nc5cncc(C#N)c5)cc4s3)cc(C)cc2n1` (stereo not shown) [Example 638, 2-((4-(1-hydroxy-2,2-dimethylpropyl)-2-(2-methoxy-7-methylquinoxalin-5-yl)benzo[d]thiazol-6-yl)oxy)ethyl (5-cyanopyridin-3-yl)carbamate], with 2.7 nM. To `COc1cnc2c(-c3nc4c(F)c(F)c(OC)cc4s3)cc(C#N)cc2n1` [Example 217, 8-(4,5-difluoro-6-methoxybenzo[d]thiazol-2-yl)-3-methoxyquinoxaline-6-carbonitrile] belongs 18 nM.

Turning to `COc1cnc2c(-c3nc4cc(F)c(OC[C@@H](C)OC(=O)Nc5ccc(C#N)nc5)cc4s3)cc(C)cc2n1` [Example 351, (R)-1-((5-fluoro-2-(2-methoxy-7-methylquinoxalin-5-yl)benzo[d]thiazol-6-yl)oxy) propan-2-yl (6-cyanopyridin-3-yl)carbamate], the IC50 came to 2.7 nM. Then `COc1cc(C(O)C(C)(C)C)c2nc(-c3cc(C#N)cc4nc(OC)cnc34)sc2c1` (stereo not shown) [Example 639, 8-(4-(1-hydroxy-2,2-dimethylpropyl)-6-methoxybenzo[d]thiazol-2-yl)-3-methoxyquinoxaline-6-carbonitrile], with 1.4 nM; and `COCCOc1ccc2nc(-c3cc(C)cc4nc(OC)cnc34)sc2c1` [Example 77, 2-(2-methoxy-7-methylquinoxalin-5-yl)-6-(2-methoxyethoxy)benzo[d]thiazole], with 130 nM; and `CCOc1cnc2c(-c3nc4cc(F)c(O[C@@H](C)[C@@H](C)OC(=O)Nc5cnc(OCCO)nc5)cc4s3)cc(C)cc2n1` [Example 568, (2R,3S)-3-((2-(2-ethoxy-7-methylquinoxalin-5-yl)-5-fluorobenzo[d]thiazol-6-yl)oxy)butan-2-yl (2-(2-hydroxyethoxy)pyrimidin-5-yl)carbamate], with 2.4 nM. Regarding `COc1cnc2c(-c3cc4ccccc4o3)nc(C)cc2c1` [Example 134, 8-(benzofuran-2-yl)-3-methoxy-6-methyl-1,7-naphthyridine\], the IC50 is 120 nM. To `COc1cnc2c(-c3nc4cc(F)c(O[C@@H](C)[C@@H](C)OC(=O)Nc5ccc(CN6CCOCC6)nc5)cc4s3)cc(C)cc2n1` [Example 521, (2R,3S)-3-((5-fluoro-2-(2-methoxy-7-methylquinoxalin-5-yl)benzo[d]thiazol-6-yl)oxy) butan-2-yl (6-(morpholinomethyl)pyridin-3-yl)carbamate] belongs 24 nM. To `COc1cnc2c(-c3nc4c(Cl)c(F)c(OCCOC(=O)Nc5cnc(C)nc5)cc4s3)cc(C)cc2n1` [Example 362, 2-((4-chloro-5-fluoro-2-(2-methoxy-7-methylquinoxalin-5-yl)benzo[d]thiazol-6-yl)oxy)ethyl (2-methylpyrimidin-5-yl)carbamate] belongs 4.1 nM; to `COc1cnc2c(-c3nc4cc(F)c(OC[C@@H](C)OC(=O)Nc5cnc(OCC(C)(C)O)nc5)cc4s3)cc(C)cc2n1` [Example 576, (R)-1-((5-fluoro-2-(2-methoxy-7-methylquinoxalin-5-yl)benzo[d]thiazol-6-yl)oxy)propan-2-yl (2-(2-hydroxy-2-methylpropoxy)pyrimidin-5-yl)carbamate], 1.2 nM.

In the case of `COc1cnc2c(-c3nc4cc(F)c(O[C@@H](C)[C@@H](C)OC(=O)Nc5cnc(OC[C@H](C)O)nc5)cc4s3)cc(Cl)cc2c1` [Example 541, (2R,3S)-3-((2-(6-chloro-3-methoxyquinolin-8-yl)-5-fluorobenzo[d]thiazol-6-yl)oxy)butan-2-yl (2-((S)-2-hydroxypropoxy)pyrimidin-5-yl)carbamate], the IC50 is 3.4 nM. To `COc1cnc2c(-c3nc4c(Cl)c(F)c(O[C@@H](C)[C@@H](C)OC(=O)Nc5ccncc5)cc4s3)cc(Cl)cc2c1` [Example 798, (2R,3S)-3-((4-chloro-2-(6-chloro-3-methoxyquinolin-8-yl)-5-fluorobenzo[d]thiazol-6-yl)oxy)butan-2-yl pyridin-4-ylcarbamate] belongs 2.5 nM; to `COCc1cnc2c(-c3nc4cccnc4s3)cc(C)cc2n1` [Example 148, 2-(2-(methoxymethyl)-7-methylquinoxalin-5-yl)thiazolo[5,4-b]pyridine], 48 nM; to `COc1cnc2c(-c3nc4c(Cl)c(F)c(OC[C@@H](C)OC(=O)Nc5cnc6c(c5)CC=N6)cc4s3)cc(C)cc2n1` [Example 375, (R)-1-((4-chloro-5-fluoro-2-(2-methoxy-7-methylquinoxalin-5-yl)benzo[d]thiazol-6-yl)oxy)propan-2-yl 3H-pyrrolo [2,3-b]pyridin-5-yl carbamate], 1.7 nM. With `CCOc1cc2sc(-c3cc(C)cc4nc(OC)cnc34)nc2c(F)c1F` [Example 315, 6-ethoxy-4,5-difluoro-2-(2-methoxy-7-methylquinoxalin-5-yl)benzo[d]thiazole], the IC50 stood at 3.3 nM. As to `COc1cnc2c(-c3nc4cc(F)c(O[C@@H](C)[C@@H](C)OC(=O)Nc5ccc(OC)nc5)cc4s3)cc(Cl)cc2c1` [Example 784, (2R,3S)-3-((2-(6-chloro-3-methoxyquinolin-8-yl)-5-fluorobenzo[d]thiazol-6-yl)oxy)butan-2-yl (6-methoxypyridin-3-yl)carbamate], the IC50 came out at 2.8 nM. Then `COc1ccc(NC(=O)O[C@H](C)[C@H](C)Oc2cc3sc(-c4cc(Cl)cc5nc(OC)cnc45)nc3cc2F)cn1` [Example 821, (2R,3S)-3-((2-(7-chloro-2-methoxyquinoxalin-5-yl)-5-fluorobenzo[d]thiazol-6-yl)oxy)butan-2-yl (6-methoxypyridin-3-yl)carbamate], with 4.6 nM. To `COc1cc(C(O)c2ccccc2)c2nc(-c3cc(C)cc4nc(OC)cnc34)sc2c1` (stereo not shown) [Example 629, (6-methoxy-2-(2-methoxy-7-methylquinoxalin-5-yl)benzo[d]thiazol-4-yl) (phenyl)methanol] belongs 2.2 nM. Then `COc1cnc2c(-c3nc4cc(F)c(OC[C@@H](C)OC(=O)Nc5ccc(C(=O)N6CCC[C@H](O)C6)nc5)cc4s3)cc(C)cc2n1` [Example 484, (R)-1-((5-fluoro-2-(2-methoxy-7-methylquinoxalin-5-yl)benzo[d]thiazol-6-yl)oxy)propan-2-yl (6-((S)-3-hydroxypiperidine-1-carbonyl)pyridin-3-yl)carbamate], with 1 nM. Consider `CCOc1ccc2nc(-c3cc(C)cc4nc(COC)cnc34)sc2c1` [Example 255, 6-ethoxy-2-(2-(methoxymethyl)-7-methylquinoxalin-5-yl)benzo[d]thiazole], for which the IC50 turned out to be 0.8 nM.
